# Values of other authors as cited in US20130210767A1, “BIOCIDAL COMPOSITION AND METHOD” (Arcis Biotechnology Limited, priority 2010, published 2013).
structure (smiles),measurement,setting,value
CCCCCCCCCCCCCCCCCC[N+](C)(C)CCC[Si](OC)(OC)OC [compound of formula (I)],stability in aqueous solution,aqueous solution,limited stability
same,stability in the presence of methanol,in the presence of methanol,stable
